Assays:
Assay type in all cases: cell-based
PC-3 = assay: Cell growth inhibition test, PC-3; details: Homo sapiens, 72 h; PC-3, Prostate cancer, 3 days, CellTiter-Glo
Description: (§1) A cell growth inhibition test was carried out by treating a cultured cancer cell line with a test compound for a given period and then counting the number of viable cells by CellTiter-Glo Luminescent Cell Viability Assay (manufactured by Promega Corp.).
(§2) The following cells were inoculated to a 384-well plate containing the compound prepared in advance at predetermined concentrations. […]
(§3) The cells thus inoculated were cultured at 37° C. for 3 days under 5% CO2. […] Then, luminescence intensity was measured using a plate reader.
(§4) The number of viable cells and luminescence intensity have been confirmed to correlate with each other. Therefore, the rate of cell growth was calculated according to the following expression: Rate of cell growth (T/C %) of a test compound-supplemented well=100×[(B−C)/(A−C)] wherein A represents the luminescence intensity (final culture date) of a test compound-free well; B represents the luminescence intensity (final culture date) of a test compound-containing well; and C represents the luminescence intensity (day of cell inoculation) of a well at the start of contact of the cells with the test compound.
(§5) T/C % at the concentration of each of the serially diluted test compounds was determined. […]

T24 = assay: Cell growth inhibition test, T24; details: Homo sapiens, T-24, 72 h; T24, Bladder cancer, 3 days, CellTiter-Glo
Description: as §1, §2, §3, §4, §5

A549 = assay: Cell growth inhibition test, A549; details: Homo sapiens, 72 h; A549, Lung cancer, 3 days, CellTiter-Glo
Description: as §1, §2, §3, §4, §5

ES-2 = assay: Cell growth inhibition test, ES-2; details: Homo sapiens, 72 h; ES-2, Ovary cancer, 3 days, CellTiter-Glo
Description: as §1, §2, §3, §4, §5

A-172 = assay: Cell growth inhibition test, A-172; details: Homo sapiens, 72 h; A-172, Brain tumor Central Nerve System, 3 days, CellTiter-Glo
Description: as §1, §2, §3, §4, §5

U266B1 = assay: Cell growth inhibition test, U266B1; details: Homo sapiens, 72 h; U266B1, Multiple myeloma, 3 days, CellTiter-Glo
Description: as §1, §2, §3, §4, §5

NALM-6 = assay: Cell growth inhibition test, NALM-6; details: Homo sapiens, 72 h; NALM-6, Leukemia, 3 days, CellTiter-Glo
Description: as §1, §2, §3, §4, §5

DOHH-2 = assay: Cell growth inhibition test, DOHH-2; details: Homo sapiens, 72 h; DOHH-2, Lymphoma, 3 days, CellTiter-Glo
Description: as §1, §2, §3, §4, §5

CCRF-CEM = assay: Cell growth inhibition test, CCRF-CEM; details: Homo sapiens, 72 h, Leukemia, 3 days, CellTiter-Glo
Description: as §1, §2, §3, §4, §5

SK-MEL-28 = assay: Cell growth inhibition test, SK-MEL-28; details: Homo sapiens, 72 h; SK-MEL-28, Skin cancer, 3 days, CellTiter-Glo
Description: as §1, §2, §3, §4, §5

HT-29 = assay: Cell growth inhibition test, HT-29; details: Homo sapiens, 72 h; HT-29, Large intestine cancer, 3 days, CellTiter-Glo
Description: as §1, §2, §3, §4, §5

AN3CA = assay: Cell growth inhibition test, AN3CA; details: Homo sapiens, AN3-CA, 72 h, Endometrial cancer, 3 days, CellTiter-Glo
Description: as §1, §2, §3, §4, §5

SK-BR-3 = assay: Cell growth inhibition test, SK-BR-3; details: Homo sapiens, 72 h; SK-BR-3, Breast cancer, 3 days, CellTiter-Glo
Description: as §1, §2, §3, §4, §5

K-562 = assay: Cell growth inhibition test, K-562; details: Homo sapiens, K562, 72 h; K-562, Leukemia, 3 days, CellTiter-Glo
Description: as §1, §2, §3, §4, §5

KASUMI-1 = assay: Cell growth inhibition test, KASUMI-1; details: Homo sapiens, 72 h; KASUMI-1, Leukemia, 3 days, CellTiter-Glo
Description: as §1, §2, §3, §4, §5

Row | GI50 (PC-3) [nM] | GI50 (T24) [nM] | GI50 (A549) [nM] | GI50 (U266B1) [nM] | GI50 (CCRF-CEM) [nM] | GI50 (SK-MEL-28) [nM] | GI50 (HT-29) [nM] | GI50 (SK-BR-3) [nM] | GI50 (K-562) [nM] | SMILES | GI50 (ES-2) [nM] | GI50 (A-172) [nM] | GI50 (NALM-6) [nM] | GI50 (DOHH-2) [nM] | GI50 (AN3CA) [nM] | GI50 (KASUMI-1) [nM]
1 | 1400 | 650 | 910 | 220 | 220 | 590 | 510 | 520 | 240 | CCOc1ccc(Cl)cc1C(=O)NCC(C)(C)CC(=O)Nc1c([C@H](C)CN(C)C)n(C)n(-c2ccccc2)c1=O [Example 68, 5-Chloro-N-[4-({5-[(1R)-2-(dimethylamino)-1-methylethyl]-1-methyl-3-oxo-2-phenyl-2,3-dihydro-1H-pyrazol-4-yl}amino)-2,2-dimethyl-4-oxobutyl]-2-ethoxybenzamide] | 480 | 380 | 130 | 240 | 740 | 140
2 | 1500 | 850 | 2000 | 620 | 590 | 920 | 1200 | 1000 | 560 | CCOc1ncc(Cl)cc1C(=O)NCC(C)(C)CC(=O)Nc1c([C@H](C)CN(C)C)n(C)n(-c2ccccc2)c1=O [Example 73, 5-Chloro-N-[4-({5-[(1R)-2-(dimethylamino)-1-methylethyl]-1-methyl-3-oxo-2-phenyl-2,3-dihydro-1H-pyrazol-4-yl}amino)-2,2-dimethyl-4-oxobutyl]-2-ethoxypyridine-3-carboxamide] | 900 | 600 | 330 | 630 | 2200 | 240
3 | 1400 | 490 | 1100 | 440 | 530 | 800 | 920 | 650 | 630 | CCOc1cc(F)c(Cl)cc1C(=O)NCC(C)(C)CC(=O)Nc1c(COC)n(C)n(-c2ccccc2)c1=O [Example 113, 5-Chloro-2-ethoxy-4-fluoro-N-(4-{[5-(methoxymethyl)-1-methyl-3-oxo-2-phenyl-2,3-dihydro-1H-pyrazol-4-yl]amino}-2,2-dimethyl-4-oxobutyl)benzamide] | 750 | 490 | 270 | 460 | 1400 | 230
